Assay results from PMC10385865, “Synthesis and Anticancer Activity of Novel Dual Inhibitors of Human Protein Kinases CK2 and PIM-1” (Pharmaceutics, 2023).
Where two headings read alike, the source gives them in different places.

Legend:
Vero cells = experiment: MTT-based viability assay, non-cancerous Vero cells; format: cell-based, Cercopithecus aethiops; details: Chlorocebus sabaeus, 48 h, read-out: IC50 Vero
Procedure: (§1) After incubation with the tested compounds, an MTT test was performed as described previously. Optical densities were measured at 570 nm using a BioTek microplate reader (BioTek Instruments, Inc., Winooski, VT, USA). All measurements were carried out in a minimum of three biological replicates.
(§2) . The IC50 values describing the half-maximal effective concentration of each tested compound were calculated and are summarized in Table 2. […].

MCF-7 cells = experiment: Annexin V/propidium iodide apoptosis, flow cytometry, MCF-7; details: for viability at 5 µM / viability at 10 µM: Homo sapiens, MCF7, 48 h, read-out: Viable; for Early apoptosis / Late apoptosis / Necrosis: mean±SD
Procedure: (§7) MCF-7 cells were seeded in 6-well plates at 1.2 × 10^5 cells/well, whereas CCRF-CEM and K-562 cells were seeded in 24-well plates at a density of 2 × 10^5/mL. Cells were treated with the tested compounds used in 5 µM and 10 µM concentrations. Then, the plates were incubated for 48 h. After exposure to the examined compounds, the cells were collected and centrifugated at 200× g at 4 °C for 5 min, washed twice in cold phosphate-buffered saline (PBS), and subsequently suspended in binding buffer at 1 × 10^6 cells/mL. Subsequently, 100-μL aliquots of the cell suspension were labeled according to the instructions of the respective manufacturer’s kit. Briefly, annexin V-fluorescein isothiocyanate and propidium iodide (BD Biosciences, Pharmingen, San Diego, CA, USA) were added to the cell suspension, and the mixture was vortexed, then incubated for 15 min at RT in the dark. A cold binding buffer (400 μL) was then added, and the cells were vortexed again and kept on ice. Flow cytometric measurements were performed within 1 h after labeling. Viable, necrotic, early, and late apoptotic cells were detected by flow cytometry using a BD FACSCanto II flow cytometer and analyzed using BD FACSDiva operating software (BD Biosciences, San Jose, CA, USA).

CCRF-CEM cells [1] = experiment: Cell cycle progression by flow cytometry (PI), CCRF-CEM; format: cell-based, human; details: 48 h
Procedure: (§3) MCF-7, CCRF-CEM, and K-562 cells were cultured in 6-well plates and treated with the tested compounds for 48 h. After exposure to the compounds, the cells were collected and washed with cold PBS and fixed at −20 °C in 70% ethanol for at least 24 h. Subsequently, cells were washed in PBS and stained with 50 μg/mL PI (propidium iodide) and 100 μg/mL RNase solution in PBS supplemented with 0.1% v/v Triton X-100 for 30 min in the dark at RT. Cellular DNA content was determined by flow cytometry employing a BD FACSCanto II flow cytometer (BD Biosciences, San Jose, CA, USA). The obtained DNA histograms were analyzed using MacCycle software (Phoenix Flow Systems, San Diego, CA, USA) for evaluation of the distribution of the cells in different phases of the cell cycle.
(§4) Since CK2 controls cell cycle progression and, consequently, its inhibition can affect the distribution of cells in the individual phases of the cell cycle, we tested the cell cycle progression in CCRF-CEM, K-562, and MCF-7 cells after treatment with 4 and rac-6. Representative plots DNA histograms with the calculations of cell percentages in each phase of the cell cycle are depicted in Figure 7. […] Accumulation of cells in sub-G1 indicates DNA degradation, as often seen in apoptotic cells, confirming the results obtained with annexin V and PI staining.

MCF-7 (breast carcinoma) = experiment: MTT-based viability assay, MCF-7; format: cell-based, human; details: for IC50: Homo sapiens, read-out: IC50 MCF-7
Procedure: as §1, §2

K-562 cells [2] = experiment: Cell cycle progression by flow cytometry (PI), K-562; format: cell-based, human; details: for K-562 cells in S phase (maximum): K-562, 15 µM, 48 h; for cell cycle arrest (phase, in words): K-562, 48 h
Procedure: as §3, §4

K-562 cells [3] = experiment: Annexin V/propidium iodide apoptosis, flow cytometry, K-562; details: for viability at 5 µM / viability at 10 µM: Homo sapiens, K562, 48 h, read-out: Viable; for Early apoptosis / Late apoptosis / Necrosis: mean±SD
Procedure: as §7

human CK2α = molecular target: T1, human CK2α (Homo sapiens, UniProt P68400); experiment: P81 filter isotopic (radiometric) kinase assay, CK2 catalytic subunit; format: biochemical; details: substrate peptide […], Ki from IC50 by Cheng–Prusoff
T1 construct: made in house
T1 sequence (P68400 whole entry): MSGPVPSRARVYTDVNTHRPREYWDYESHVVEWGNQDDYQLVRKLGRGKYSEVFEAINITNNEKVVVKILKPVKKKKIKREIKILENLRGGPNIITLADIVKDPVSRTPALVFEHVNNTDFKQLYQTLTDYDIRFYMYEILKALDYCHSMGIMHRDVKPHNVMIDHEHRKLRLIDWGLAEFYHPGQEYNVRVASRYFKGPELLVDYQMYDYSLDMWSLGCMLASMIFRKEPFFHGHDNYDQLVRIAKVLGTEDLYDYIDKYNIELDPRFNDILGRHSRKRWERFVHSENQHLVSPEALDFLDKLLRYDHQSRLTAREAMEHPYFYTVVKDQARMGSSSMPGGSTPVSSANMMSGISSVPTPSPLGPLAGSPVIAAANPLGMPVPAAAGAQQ
Procedure: (§5) The obtained compounds were tested for their inhibitory activity toward human CK2α, human CK2 holoenzyme, and PIM-1 using a P81 filter isotopic assay as described previously. […] The experimental data were fitted to the sigmoidal dose–response equation, i.e., (variable slope) Y = Bottom + (Top-Bottom)/(1 + 10^((LogIC50−X)∗HillSlope), in GraphPad Prism (Prism 9, v. 9.0.1).
(§6) Inhibition of the human CK2 catalytic subunit (CK2α), CK2 holoenzyme (CK2α2β2), and PIM-1 by the newly obtained compounds was evaluated using a radiometric assay (Table 1, Figure S2). The synthetic peptide […] was used as the substrate of CK2, and peptide […] was used as the substrate of PIM-1. The values of the inhibition constant (Ki) were calculated using the Cheng–Prusoff equation: Ki = IC50/(1 + [S]/Km).

[4] = molecular target: T2, human CK2 holoenzyme (CK2α2β2) (Homo sapiens, UniProt P68400); experiment: P81 filter isotopic (radiometric) kinase assay, CK2 holoenzyme; format: biochemical; details: substrate peptide […], Ki from IC50 by Cheng–Prusoff
T2 construct: made in house
T2 sequence (P68400 whole entry): as above
T2 sequence (P67870 whole entry partner): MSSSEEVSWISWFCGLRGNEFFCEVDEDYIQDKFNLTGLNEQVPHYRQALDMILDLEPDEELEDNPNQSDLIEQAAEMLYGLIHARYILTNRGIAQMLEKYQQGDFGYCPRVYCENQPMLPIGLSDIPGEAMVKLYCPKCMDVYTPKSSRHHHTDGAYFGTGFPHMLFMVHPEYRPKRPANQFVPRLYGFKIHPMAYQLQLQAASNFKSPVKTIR
Procedure: as §5, §6

CCRF-CEM cells [5] = experiment: Mitochondrial membrane potential (ΔΨm) assay, JC-1, flow cytometry; format: cell-based, human; details: 10 µM, 48 h
Procedure: Mitochondrial membrane potential was assessed by flow cytometry using 5,5′,6,6′-tetrachloro-1,1′,3,3′-tetraethylbenzimidazolocarbocyanine iodide (JC-1; Sigma-Aldrich, St. Louis, MO, USA). JC-1 undergoes potential-dependent accumulation in mitochondria. In healthy cells, the dye accumulates in mitochondria, forming aggregates with red fluorescence (FL-2 channel), whereas in dead and apoptotic cells, the dye remains in the cytoplasm in a monomeric form and emits green fluorescence (FL-1 channel). Cells were harvested by centrifugation 48 h post treatment, suspended in 1 mL of complete culture medium at approximately 1 × 10^6 cells/mL, and incubated with 2.5 µL of JC-1 solution in DMSO (1 mg/mL) for 15 min at 37 °C in the dark. The stained cells were then washed with cold PBS, suspended in 400 µL of PBS, and examined by flow cytometry.
The most significant effect, i.e., 45% of cells with reduced ΔΨm, was obtained in cells treated with 10 µM conc. of rac-6.

SMILES | viability at 5 µM (MCF-7 cells) | viability at 10 µM (MCF-7 cells) | Early apoptosis (MCF-7 cells; MCF-7, 5 µM, 48 h) | Late apoptosis (MCF-7 cells; MCF-7, 5 µM, 48 h) | Necrosis (MCF-7 cells; MCF-7, 5 µM, 48 h) | Early apoptosis (MCF-7 cells; MCF-7, 10 µM, 48 h) | Late apoptosis (MCF-7 cells; MCF-7, 10 µM, 48 h) | Necrosis (MCF-7 cells; MCF-7, 10 µM, 48 h) | cell cycle arrest (phase, in words) (CCRF-CEM cells [1]) | K-562 cells in S phase (maximum) (K-562 cells [2]) | cell cycle arrest (phase, in words) (K-562 cells [2]) | viability at 5 µM (K-562 cells [3]) | viability at 10 µM (K-562 cells [3]) | Early apoptosis (K-562 cells [3]; K-562, 5 µM, 48 h) | Late apoptosis (K-562 cells [3]; K-562, 5 µM, 48 h) | Necrosis (K-562 cells [3]; K-562, 5 µM, 48 h) | percentage of total apoptotic K-562 cells (K-562 cells [3]; K-562, 10 µM, 48 h) | Early apoptosis (K-562 cells [3]; K-562, 10 µM, 48 h) | Late apoptosis (K-562 cells [3]; K-562, 10 µM, 48 h) | Necrosis (K-562 cells [3]; K-562, 10 µM, 48 h) | other results
CN(C)c1nc2c(Br)c(Br)c(Br)c(Br)c2[nH]1 [Compound 4, 4,5,6,7-Tetrabromo-N,N-dimethyl-1H-benzimidazol-2-amine, reference compound] | 79 ± 2.76% | 70.3 ± 3.36% | 0.98±0.62% | 8.44±1.47% | 11.62±2.01% | 1.80±1.31% | 15.94±3.58% | 11.96±2.46% | S-phase arrest | 57.7% | S-phase arrest | 92.3 ± 0.99% | 90.6 ± 4.27% | 1.95±0.61% | 4.70±1.21% | 1.05±0.69% | 8.7% | 1.33±0.67% | 7.43±3.52% | 0.67±0.31% | IC50 (Vero cells): 18.7 ± 0.33 µM; IC50 (MCF-7 (breast carcinoma); MCF7, 48 h): 14.7 ± 0.27 µM
OC(CNc1nc2c(Br)c(Br)c(Br)c(Br)c2[nH]1)C(F)(F)F (racemic) [rac-6, 1,1,1-Trifluoro-3-[(4,5,6,7-tetrabromo-1H-benzimidazol-2-yl)amino]propan-2-ol] | 79 ± 1.94% | 69.1 ± 13.1% | 1.18±1.08% | 10.96±1.63% | 8.94±1.14% | 3.53±5.45% | 19.05±7.40% | 8.28±1.69% | G1-phase arrest | 56.1% | S-phase arrest | 87.97 ± 0.81% | 82.8 ± 3.68% | 5.13±0.40% | 5.97±1.02% | 0.63±0.06% | 15.5% | 4.67±1.21% | 10.80±4.06% | 1.70±0.60% | IC50 (Vero cells; MTT): 20.4 ± 0.41 µM; Ki (human CK2α): 0.294 µM; Ki [4]: 0.112 µM; induction of apoptosis (in words) (MCF-7 cells; MCF-7, 10 µM, 48 h, statistically significant result): induced apoptosis; leukemia cells accumulated in G1 phase (maximum) (CCRF-CEM cells [1]; 10 µM): 49%; IC50 (MCF-7 (breast carcinoma); MCF7, MTT, 48 h): 9.66 ± 0.31 µM; SI (selectivity index) MCF-7 (MCF-7 (breast carcinoma); IC50 Vero/IC50 cancer cells): 2.11; induction of apoptosis (in words) (K-562 cells [3]; K-562, 5 and 10 µM, 48 h): no significant apoptosis observed; cells with reduced ΔΨm (CCRF-CEM cells [5]): 45%
